Experimental data: patent US12162836B2, “N-acyl-{4-[(4-aryl-phenyl)sulfonylmethyl]piperidine} compounds and their therapeutic use” (Modern Biosciences Limited, priority 2019, dated 2024)

Experiments:
[1] = test system: collagen-induced arthritis in DBA/1j mice; experiment: Mouse Collagen-Induced Arthritis; format: in vivo; conditions: 10 mg/kg/day, once daily for 14 days, oral gavage; arthritic index vs control
Description: Seven- to eight-week-old male DBA/1j mice were used for all procedures. Animals were housed in groups of 10, and were maintained at 21° C.±2° C. on a 12-hour light/dark cycle with food and water ad libitum. Complete Freund's adjuvant (CFA) was prepared by emulsifying bovine type II collagen at 4 mg/mL with a 4 mg/mL suspension of Mycobacterium tuberculosis H37Ra in Incomplete Freund's Adjuvant (IFA) (0.85 mL paraffin oil and 0.15 mL mannide monooleate) in a 1:1 (v/v) ratio. All mice were immunised subcutaneously with 200 μg of bovine type II collagen in CFA. 21 days later, all mice were immunised subcutaneously with 100 μg of bovine type II collagen in IFA. The mice started to develop signs and symptoms of arthritis following the ‘booster’ immunisation.
For macroscopic assessment of arthritis, the following signs were monitored in each paw of each mouse three times per week and summed to generate the Arthritic Index (A1) (the maximum A1 for one animal is 16): • 0=no visible effects of arthritis. • 1=oedema and/or erythema of 1 digit. • 2=oedema and/or erythema of 2 digits. • 3=oedema and/or erythema of more than 2 digits. • 4=severe arthritis of entire paw and digits.
Animals were sorted into treatment groups with a mean arthritic index of 2.5 and then dosed once daily for 14 days with compound: by oral gavage for test compounds, or by subcutaneous injection at a dose of 10 mg/kg for the positive control, etanercept. After completion of the experiment, the mice were sacrificed.
The data were analysed by generating an average of the arthritic index across each treatment group. The mean arthritic index was then compared to the arthritic index of control (untreated) animals using the following formula to generate a percentage inhibition of disease.

[2] = Rodent Pharmacokinetics Studies; format: in vivo, rat; conditions: male Han Wistar rats; for i.v. AUC: 0.25 mg/kg intravenous; for Bioavail, F: oral vs intravenous; for half-life: rat, plasma
From the text: Absorption and metabolic stability were studied using an in vivo pharmacokinetics assay.
[…] Test compounds were formulated in 0.5% carboxymethylcellulose (CMC)/0.1% Tween-80 for administration via the oral route, or in 5% DMSO/10% solutol in saline for administration via the intravenous route. For compound HMC-C-01-A the oral administration was formulated in 2% dimethylacetamide/20% hydroxypropyl-β-cyclodextrin in water. Animals were given free access to food throughout the study except for fasting overnight and until 2 hours post dose on the day of dosing.
Blood samples were taken from the retro-orbital plexus at the following time points and placed in microtubes containing 20% K2EDTA solution:
Oral Dosing: predose; 0.25, 0.5, 1, 2, 4, 6, 8, 12 and 24 hours post dose.
Blood samples were centrifuged to obtain plasma, which was transferred to a separate container and frozen at −20° C.
For analysis, samples were thawed at room temperature and prepared by protein precipitation with acetonitrile spiked with internal standard (500 ng/mL glipizide) in the ratio 1:4 with plasma.
The pharmacokinetic parameters for the test compounds were calculated by Phoenix WinNonlin version 8.0 (Certara, CA) using standard non-compartmental methods. Peak plasma concentrations (Cmax) and time of the peak plasma concentration (Tmax) were the observed values. The area under the plasma concentration-time curve (AUC) was determined by use of the linear trapezoidal rule up to the last measurable concentration (AUClast) and thereafter by extrapolation of the terminal elimination phase to infinity (AUCinf). The elimination phase half-life (t1/2) was calculated as 0.693/kel.

[3] = test system: CYP1A2, CYP2C9, CYP2C19, CYP2D6 and CYP3A4; format: in vitro ADME, human
Description: The ability of test compounds to inhibit five of the most relevant cytochrome P450 enzymes was measured by determination of the activity of cytochrome P450 enzymes in recombinant cytochrome preparations, called Bactosomes (Cypex Ltd, Dundee, Scotland UK DD2 1 NH), in the presence of a specific probe substrate. Bactosomes are a highly efficient and cost-effective source of recombinant CYP450s which have a higher specific activity of enzyme compared to other sources, such as liver microsomes. […] The following CYP450 isoforms were assayed: CYP1A2, CYP2C9, CYP2C19, CYP2D6 and CYP3A4. The study of CYP450 inhibition potential in Bactosomes is accepted as a valuable model permitting rapid prediction of potential drug-drug interactions in vivo (see, e.g., Weaver et al., 2003).
Bactosomes were obtained from a commercial source (Cypex, Scotland, UK). Test compounds were incubated with Bactosomes at 6 concentrations. Samples were incubated for 10 minutes, after which the reaction was stopped and the samples analysed by LC-MS/MS Multiple Reaction Monitoring (MRM) for the presence/amount of substrate probe. […]

hERG ion channel = hERG ion channel (Homo sapiens (Human), UniProt Q12809); experiment: hERG Ion Channel binding assay (3H astemizole displacement)
Sequence of hERG ion channel (Q12809 whole entry): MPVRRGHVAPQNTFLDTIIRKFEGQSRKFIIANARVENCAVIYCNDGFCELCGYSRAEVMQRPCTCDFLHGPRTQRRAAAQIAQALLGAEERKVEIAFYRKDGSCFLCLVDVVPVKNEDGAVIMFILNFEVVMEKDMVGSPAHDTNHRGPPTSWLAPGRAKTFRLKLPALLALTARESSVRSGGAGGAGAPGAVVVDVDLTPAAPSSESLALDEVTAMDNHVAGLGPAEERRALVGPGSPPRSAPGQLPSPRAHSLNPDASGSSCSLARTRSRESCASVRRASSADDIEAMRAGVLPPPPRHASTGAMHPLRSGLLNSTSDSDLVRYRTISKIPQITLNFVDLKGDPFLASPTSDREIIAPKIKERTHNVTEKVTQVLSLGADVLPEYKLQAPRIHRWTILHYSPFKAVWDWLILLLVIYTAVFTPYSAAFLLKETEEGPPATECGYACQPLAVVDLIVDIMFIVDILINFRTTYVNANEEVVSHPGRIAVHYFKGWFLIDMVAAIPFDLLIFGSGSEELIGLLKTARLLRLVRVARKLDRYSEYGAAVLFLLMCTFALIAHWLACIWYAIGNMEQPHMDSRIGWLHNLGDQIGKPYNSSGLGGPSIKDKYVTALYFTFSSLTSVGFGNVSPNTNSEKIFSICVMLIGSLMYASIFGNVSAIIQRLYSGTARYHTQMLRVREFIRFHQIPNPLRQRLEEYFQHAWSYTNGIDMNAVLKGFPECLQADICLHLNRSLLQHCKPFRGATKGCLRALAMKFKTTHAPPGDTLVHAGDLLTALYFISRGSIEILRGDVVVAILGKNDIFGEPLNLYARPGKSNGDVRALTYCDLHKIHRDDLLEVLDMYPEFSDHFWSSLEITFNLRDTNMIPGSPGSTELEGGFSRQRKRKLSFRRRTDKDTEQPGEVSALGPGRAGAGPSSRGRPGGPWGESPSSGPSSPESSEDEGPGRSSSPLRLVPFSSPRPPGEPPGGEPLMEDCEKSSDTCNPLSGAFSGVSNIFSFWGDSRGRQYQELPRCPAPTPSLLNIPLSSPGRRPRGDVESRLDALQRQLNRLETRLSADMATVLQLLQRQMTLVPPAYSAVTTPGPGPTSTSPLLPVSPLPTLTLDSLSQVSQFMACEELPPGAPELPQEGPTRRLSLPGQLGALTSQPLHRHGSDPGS
In short: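 Membranes from stably transfected hERG-HEK293 cells incubated with 1.5 nM ³H-astemizole ± test compound in HEPES buffer pH 7.4 (0.1% BSA, 5 mM KCl, 130 mM NaCl) at 25° C for 60 min. Bound ligand measured by filtration and scintillation counting; reported as % displacement (0% none, 100% complete).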

Structure (SMILES) | % inhibition of disease [1] [%] | T1/2 [2] [h] | i.v. AUC [2] [ng/mL/min] | p.o. AUC ([2]; dosed at 5 mg/kg orally) | Bioavail, F [2] [%] | p.o. AUC ([2]; 1.25 mg/kg orally) [ng/mL/min] | half-life [2] [h] | drug-drug interaction liability, CYP450 inhibition profile (in words) [3] | cardiac safety profile, hERG (in words) (hERG ion channel)
CC1(O)CCC(NS(=O)(=O)c2ccc(-c3ccc(F)cc3F)cc2)CC1 (centres unmarked) [ABD899, reference compound] | 77 | 10.8 | 2133 | 10740 ^(4) ng/mL/min | 50 |  |  |  | 
CC(=O)N1CCC(CS(=O)(=O)c2ccc(-c3ccc(F)cc3F)cc2)CC1 [NASMP-01, 1-(4-(((2′,4′-Difluoro-[1,1′-biphenyl]-4-yl)sulfonyl)methyl)piperidin-1-yl)ethan-1-one] | 64 |  | 816 |  | 56 | 2299 | 6.6 | particularly good profile | particularly positive profile
CC(=O)N1CCC(CS(=O)(=O)c2ccc(-c3ccc(C#N)cc3Cl)cc2)CC1 [NASMP-05, 4′-(((1-Acetylpiperidin-4-yl)methyl)sulfonyl)-2-chloro-[1,1′-biphenyl]-4-carbonitrile] |  |  |  |  |  |  |  | particularly good profile | 
CC(=O)N1CCC(CS(=O)(=O)c2ccc(-c3ccc(Cl)cc3C#N)cc2)CC1 [NASMP-06, 4′-(((1-Acetylpiperidin-4-yl)methyl)sulfonyl)-4-chloro-[1,1′-biphenyl]-2-carbonitrile] |  |  | 349 |  | 24 | 3030 | 3.3 |  | 
CC(=O)N1CCC(CS(=O)(=O)c2ccc(-c3c(F)cccc3F)cc2)CC1 [NASMP-09, 1-(4-(((2′,6′-Difluoro-[1,1′-biphenyl]-4-yl)sulfonyl)methyl)piperidin-1-yl)ethan-1-one] |  |  |  |  |  |  |  |  | particularly positive profile
CC(=O)N1CCC(CS(=O)(=O)c2ccc(-c3ccc(F)cc3F)cc2C(F)(F)F)CC1 [NASMP-12, 1-(4-(((2′,4′-Difluoro-3-(trifluoromethyl)-[1,1′-biphenyl]-4-yl)sulfonyl)methyl)piperidin-1-yl)ethan-1-one] |  |  | 581 |  | >69 | 3160 | 5.1 |  | 
CCC(=O)N1CCC(CS(=O)(=O)c2ccc(-c3ccc(F)cc3F)cc2)CC1 [NASMP-15, 1-(4-(((2′,4′-Difluoro-[1,1′-biphenyl]-4-yl)sulfonyl)methyl)piperidin-1-yl)propan-1-one] |  |  | 282 |  | >62 | 1750 | 4.9 |  | 
